This note sets out measurements from patent US20260034044A1, “A PRESERVATIVE COMPOSITION” (AnalytiCon Discovery - Zweigniederlassung der BRAIN Biotech …, priority 2022, published 2026).

Structures are written as SMILES. Values after ≈ are worked out from the molar mass of the structure shown.

Holding throughout (test): Antimicrobial activity (MIC)
What all share (assay type): cell-based

The test system of experiment [1] is Botrytis cinerea DSM 5145. The following applies: DSM5145, potato dextrose broth pH 3.8, visual evaluation, read-out: Minimal Inhibitory Concentration (MIC).
Experiment [2] concerns Candida albicans ATCC10231. The following applies: potato dextrose broth pH 3.8, visual evaluation, read-out: Minimal Inhibitory Concentration (MIC).
Experiment [3] deals with Cladosporium cladosporioides DSM19653. The following applies: potato dextrose broth pH 3.8, visual evaluation, read-out: Minimal Inhibitory Concentration (MIC).
Experiment [4] relates to Clostridium sporogenes ATCC 19404. The following applies: ATCC19404, potato dextrose broth pH 3.8, visual evaluation, read-out: Minimal Inhibitory Concentration (MIC). How it is done:
Compounds are dissolved at a concentration of 20 mg/ml using 100% DMSO. • Preculture: yeast and bacteria are plated on potato dextrose agar, resuspended in potato dextrose broth and CFU via OD measurement determined; adjusting CFU of the strain in PDB pH 3.8. • Preculture: for mycel forming fungi spores were directly used after thawing of cryopreserved stocks of known titre. • Final titre used for the assay: Yeast strains 5*10^3 CFU/ml, Bacteria 1*10^6 CFU/ml, Fungi (spores) 5*10^4 CFU/ml • Potato dextrose broth pH 3.8 was used as assay matrix • 500 ppm (0.05%) of the compounds were screened (final DMSO 2.5% (v/v)) • Volume: 100 μl in 96-well format • Positive controls: potassium sorbate, sodium benzoate & triclosan • 28° C. to 30° C., static incubation • Incubation time depending on spoilage organism between 2 and 8 days • Visual evaluation (per eye, for fungi with binocular magnification) Antimicrobial activities are reported in Table 1.

In experiment [5] the test system is Cutibacterium acnes DSM 1897. The following applies: DSM1897, potato dextrose broth pH 3.8, visual evaluation, read-out: Minimal Inhibitory Concentration (MIC).
Experiment [6] concerns Enterobacter cloacae DSM 6234. The following applies: DSM6234, potato dextrose broth pH 3.8, visual evaluation, read-out: Minimal Inhibitory Concentration (MIC).
Experiment [7] relates to Listeria monocytogenes DSM 20600. The following applies: DSM20600, potato dextrose broth pH 3.8, visual evaluation, read-out: Minimal Inhibitory Concentration (MIC).
Experiment [8] concerns Malassezia furfur DSM 6170. The following applies: DSM6170, potato dextrose broth pH 3.8, visual evaluation, read-out: Minimal Inhibitory Concentration (MIC).
Experiment [9] has as its system Penicillium expansum DSM 62841. The following applies: DSM62841, potato dextrose broth pH 3.8, visual evaluation, read-out: Minimal Inhibitory Concentration (MIC).
The subject of experiment [10] is Porphyromonas gingivalis DSM 20709. The following applies: DSM20709, potato dextrose broth pH 3.8, visual evaluation, read-out: Minimal Inhibitory Concentration (MIC).
In experiment [11] the test system is Pseudomonas fluorescens DSM50337. The following applies: potato dextrose broth pH 3.8, visual evaluation, read-out: Minimal Inhibitory Concentration (MIC).
In experiment [12] the test system is Yarrowia lipolytica DSM 70561. The following applies: DSM70561, potato dextrose broth pH 3.8, visual evaluation, read-out: Minimal Inhibitory Concentration (MIC).

Consider `C[C@H]1CC[C@@]2(OC1)O[C@H]1CC3C4CC[C@H]5C[C@@H](O[C@@H]6O[C@H](CO)[C@H](O[C@@H]7O[C@H](CO)[C@@H](O)[C@H](O[C@@H]8OC[C@@H](O)[C@H](O)[C@H]8O)[C@H]7O[C@@H]7O[C@H](CO)[C@@H](O)[C@H](O)[C@H]7O)[C@H](O)[C@H]6O)[C@H](O)C[C@]5(C)C4=CC(=O)[C@]3(C)[C@H]1[C@@H]2C` (stereo partly drawn) [A], for which the MIC is greater than 80 µg/mL in experiment [1]; greater than 80 µg/mL in [2]; greater than 80 µg/mL in [3]; 80 µg/mL (≈ 75.2 µM) in [4]; greater than 80 µg/mL in [5]; greater than 80 µg/mL in experiment [6]. In addition, the MIC was greater than 80 µg/mL in [7]; greater than 80 µg/mL in experiment [8]; greater than 500 µg/mL in experiment [9]; greater than 80 µg/mL in [10]; greater than 80 µg/mL in experiment [11]; greater than 80 µg/mL in [12].
For the compound `C[C@@H]1CC[C@@]2(OC1)O[C@H]1CC3C4CC=C5CC(O[C@@H]6O[C@H](CO)[C@@H](O[C@@H]7O[C@@H](C)[C@H](O[C@@H]8O[C@@H](C)[C@H](O)[C@@H](O)[C@H]8O)[C@@H](O)[C@H]7O)[C@H](O)[C@H]6O[C@@H]6O[C@@H](C)[C@H](O)[C@@H](O)[C@H]6O)CC[C@]5(C)C4CC[C@]3(C)[C@@]1(O)[C@@H]2C` (stereo partly drawn) [B], the MIC in [1] is greater than 80 µg/mL; in experiment [2] it was greater than 80 µg/mL; in [3] it was greater than 80 µg/mL; in experiment [4], 80 µg/mL (≈ 77.6 µM); in [5], greater than 80 µg/mL; in experiment [6], greater than 80 µg/mL. Moreover, the MIC in experiment [7] was greater than 80 µg/mL; in experiment [8] it was 80 µg/mL (≈ 77.6 µM); in [9] it was greater than 500 µg/mL; in [10], greater than 80 µg/mL; in [11], greater than 80 µg/mL; in experiment [12], greater than 80 µg/mL.
As for `CC1CC[C@@]2(OC1)O[C@H]1CC3C4CC=C5C[C@@H](O[C@@H]6O[C@H](CO)[C@@H](O[C@@H]7O[C@@H](C)[C@H](O)[C@@H](O)[C@H]7O)[C@H](O)[C@H]6O[C@@H]6O[C@@H](C)[C@H](O)[C@@H](O)[C@H]6O)CC[C@]5(C)C4CC[C@]3(C)[C@@]1(O)[C@@H]2C` (stereo partly drawn) [C], the MIC in [1] is greater than 80 µg/mL; in experiment [2], greater than 80 µg/mL; in experiment [3], greater than 80 µg/mL; in [4], 80 µg/mL (≈ 90.4 µM); in experiment [5] it was greater than 80 µg/mL; in [6], greater than 80 µg/mL. In addition, the MIC is greater than 80 µg/mL in [7]; 80 µg/mL (≈ 90.4 µM) in [8]; greater than 500 µg/mL in [9]; greater than 80 µg/mL in [10]; greater than 80 µg/mL in experiment [11]; greater than 80 µg/mL in [12].
With `C[C@H]1CC[C@@]2(OC1)O[C@H]1CC3C4CC[C@H]5C[C@@H](O[C@@H]6O[C@H](CO)[C@H](O[C@@H]7O[C@H](CO)[C@@H](O)[C@H](O)[C@H]7O[C@@H]7O[C@H](CO)[C@@H](O)[C@H](O)[C@H]7O)[C@H](O)[C@H]6O)[C@H](O)C[C@]5(C)C4=CC(=O)[C@]3(C)[C@H]1[C@@H]2C` (stereo partly drawn) [D], the MIC in experiment [1] was greater than 80 µg/mL; in experiment [2], greater than 80 µg/mL; in experiment [3], greater than 80 µg/mL; in experiment [4] it was 80 µg/mL (≈ 85.9 µM); in experiment [5] it was greater than 80 µg/mL; in experiment [6], greater than 80 µg/mL. Besides, the MIC was greater than 80 µg/mL in experiment [7]; greater than 80 µg/mL in experiment [8]; greater than 500 µg/mL in [9]; greater than 80 µg/mL in [10]; greater than 80 µg/mL in experiment [11]; greater than 80 µg/mL in [12].
